What follows are molecules tested against T1, Human Polymorphonuclear Leukocyte Elastase (Homo sapiens, UniProt P08246) (assay: Inhibition of human polymorphonuclear leukocyte elastase via hydrolysis of Boc-AAPAN). Details: effective dosage for 50% inhibition of the enzyme activity 2 minutes after zero time; crude PMN extract, 0.2 mM Boc-AAPAN, pH 7.5; read-out: ED50 (the source's name) (converted).
T1 construct: Crude extract of human polymorphonuclear leukocytes (PMN) containing elastase activity; endogenous in cells; host or cells: human polymorphonuclear leukocytes (PMN), crude extract
T1 sequence (P08246 30-247 limits assumed): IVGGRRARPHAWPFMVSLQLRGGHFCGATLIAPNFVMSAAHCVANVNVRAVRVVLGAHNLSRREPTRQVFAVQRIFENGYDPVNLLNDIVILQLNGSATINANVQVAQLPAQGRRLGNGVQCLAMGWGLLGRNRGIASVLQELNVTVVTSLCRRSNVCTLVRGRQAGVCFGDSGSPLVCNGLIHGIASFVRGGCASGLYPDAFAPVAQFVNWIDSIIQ
Assay type: biochemical
Experimental: Enzyme Assays for the Inhibition of Human Polymorphonuclear Leukocyte Elastase Via Hydrolysis of N-t-Boc-alanyl-alanyl-prolylalanine-p-nitroanilide Reagents
0.05 M TES (N-tris[hydroxymethyl]methyl-2-amino-ethanesulfonic acid) Buffer, pH 7.5.
0.2 mM N-t-Boc-alanyl-alanyl-prolyl-alanine-p-nitroanilide (Boc-AAPAN).
To prepare substrate, the solid (m.w. 550) was first dissolved in 10.0 ml DMSO. Buffer at pH 7.5 was then added to a final volume of 100 ml.
Crude extract of human polymorphonuclear leukocytes (PMN) containing elastase activity.
Inhibitors (cephalosporin sulfone esters) to be tested dissolved in DMSO just before use.
To 1.0 ml of 0.2 mM Boc-AAPAN in a cuvette, 0.01-0.1 ml of DMSO with or without inhibitor was added. After mixing, a measurement was taken at 410 mμ to detect any spontaneous hydrolysis due to presence of test compound. 0.05 Milliliters of PMN extract was then added and the ΔOD/min at 410 mμ was measured and recorded. Beckman model 35 spectrophotometer was used.
Results were reported as ED50, i.e., effective dosage in micrograms per milliliter (μg/ml) for 50% inhibition of the enzyme activity 2 minutes after zero time.
The elastase activity in the crude PMN extract may vary from one preparation to another. A control of each new batch is run, and the volume added in the assay procedure is adjusted according to activity.

First: CC1=COC2C(NC(=O)c3ccccc3)C(=O)N2C1C(=O)OCc1ccccc1 (stereo not shown)
Second: CC1=C(C(=O)OCc2ccccc2)N2C(=O)C(NC(=O)c3ccccc3)C2OC1 (stereo not shown) [C6 H5 CONH]
The IC50 of the first is 4-fold lower: 12.7 µM for the first, 51 µM for the second.

First: COC1(NC(=O)C(C(=O)OCc2ccccc2)c2ccc(O)cc2)C(=O)N2C(C(=O)OCc3ccccc3)=C(C)COC21 (stereo not shown)
Second: COC(=O)C1=C(CSc2nnnn2C)COC2N1C(=O)C2(NC(=O)C(C(=O)OC)c1ccc(O)cc1)OC (stereo not shown)
The IC50 of the first is lower: 29 µM for the first, at least 36.5 µM for the second.

From US4717722A, “Substituted 1-oxa-dethiacephalosporins as anti-inflammatory and antidegenerative agents” (Merck & Co., Inc., priority 1984, dated 1988)
